Source: patent publication US9193819B2, “Polymers, substrates, methods for making such, and devices comprising the same” (Avertica, Inc., priority 2013, dated 2015)
Counter-ions that a name gives are not always drawn.

What follows are compounds tested on mushroom tyrosinase (polyphenol oxidase) Sigma T3824 (assay: Testing of polymer production in enzymatic tyrosinase (polyphenol oxidase) reaction). Settings: approx. 50 mM potassium phosphate buffer pH 6.5, approx. 5 mM substrate, 100 to 10,000 units enzyme, observed over 24 hours.
Format: biochemical
Design: key: +++: Reacted within about 1 hour; ++: reacted within about 3 hours; +: reacted within about 24 hours; +/−: inconclusive results; −: no reaction
Description: All reactions were carried out in approximately 50 mM potassium phosphate buffer, pH 6.5 with approximately 5 mM substrate and mushroom tyrosinase (polyphenol oxidase) Sigma T3824 in an amount of 100 to 10,000 units. Reaction volumes varied from 200 μl to 2 ml. In cases where substrates were not completely solubilized, then a saturated solution was used as the limit of solubility. In some cases, a solution of DMSO was used to increase solubility of the substrates. […] The reactions were observed over a 24 hour period for the production of polymers, and the presence and color of polymer and solution was recorded.
The production of polymers in each reaction was visible as a precipitate in the well of a 96 well plate or in the reaction mixture on a glass slide.

Compound	Result (polymer production in tyrosinase reaction)
CN[C@@H](Cc1ccc(O)cc1)C(=O)O [N-methyl tyrosine]	++ (reacted within about 3 hours)
NCCc1ccc(O)cc1 [Tyramine]	+++ (Reacted within about 1 hour)
Cl.NCCc1ccccc1 [Beta phenylethylamine HCL]	+/−
c1ccc2[nH]ccc2c1 [Indole]	−
N[C@@H](Cc1ccc(O)cc1)C(=O)O [Tyrosine]	++ (reacted within about 3 hours)
Oc1ccc2[nH]ccc2c1 [5-hydroxyindole]	+++ (Reacted within about 1 hour)
Cl.NCCc1ccc(O)cc1 [Tyramine HCl]	+++ (Reacted within about 1 hour)
Oc1ccc2cc(O)ccc2c1 [2,6 dihydroxnaphthalene]	+ (reacted within about 24 hours)
Oc1ccc2cc[nH]c2c1 [6 Hydroxyindole]	++ (reacted within about 3 hours)

Same assay, conditions: as E1, substrate (or a marked component) dissolved in 20% DMSO

Compound	Result (polymer production in tyrosinase reaction)
Oc1ccc(-c2cc(-c3ccc(O)cc3)cc(-c3ccc(O)cc3)c2)cc1 [1,3,5 Tris(4hydroxyphenyl)benzene]	+ (reacted within about 24 hours)
Oc1ccc2c(c1)[nH]c1ccccc12 [2 Hydroxy carbazole]	−
CC1=NCCc2c1[nH]c1cc(O)ccc21 [Harmalol HCl dehydrate]	−
